Experimental data taken from ChEMBL document CHEMBL1201862, “PubChem BioAssay data set” (2004).
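Exposure lasted 48 hours, with cells grown in 96-well plates and compounds tested at five concentrations. The concentration for 50% growth inhibition is given as GI50.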 The source made the active and inactive calls. No stated cut-off is given here; in the data, active = GI50 up to about 1.1 µM and inactive = higher.

Experiments:
Experiment in all cases: NCI-60 cell line screen, 48 h
UACC-257 = test system: UACC-257
HOP-92 = test system: HOP-92
SNB-75 = test system: SNB-75
K562 = test system: K562
MDA-MB-435 = test system: MDA-MB-435
PC-3 = test system: PC-3
NCI-H522 = test system: NCI-H522
SK-MEL-2 = test system: SK-MEL-2
NCI-H460 = test system: NCI-H460
RPMI-8226 = test system: RPMI-8226
786-0 = test system: 786-0
HCT-116 = test system: HCT-116
LOX IMVI = test system: LOX IMVI
NCI-H23 = test system: NCI-H23
M14 = test system: M14
SNB-19 = test system: SNB-19
MCF7 = test system: MCF7
Malme-3M = test system: Malme-3M
A498 = test system: A498
NCI/ADR-RES = test system: NCI/ADR-RES

| SMILES | GI50 (UACC-257) | GI50 (HOP-92) | GI50 (SNB-75) | GI50 (K562) | GI50 (MDA-MB-435) | GI50 (PC-3) | GI50 (NCI-H522) | GI50 (SK-MEL-2) | GI50 (NCI-H460) | GI50 (RPMI-8226) | GI50 (786-0) | GI50 (HCT-116) | GI50 (LOX IMVI) | GI50 (NCI-H23) | GI50 (M14) | GI50 (SNB-19) | GI50 (MCF7) | GI50 (Malme-3M) | GI50 (A498) | GI50 (NCI/ADR-RES) |
| --- | --- | --- | --- | --- | --- | --- | --- | --- | --- | --- | --- | --- | --- | --- | --- | --- | --- | --- | --- | --- |
| Cc1cc2ncn(CC(=O)O)c2cc1C | > 100 µM (inactive) | > 100 µM (inactive) | > 100 µM (inactive) | > 100 µM (inactive) | > 100 µM (inactive) | > 100 µM (inactive) | > 100 µM (inactive) | > 100 µM (inactive) | > 100 µM (inactive) | > 100 µM (inactive) | > 100 µM (inactive) | > 100 µM (inactive) | > 100 µM (inactive) | > 100 µM (inactive) | > 100 µM (inactive) | > 100 µM (inactive) | > 100 µM (inactive) | > 100 µM (inactive) | > 100 µM (inactive) | > 100 µM (inactive) |
| O=C(O)CCN1CCN(CCC(=O)O)CCN(CCC(=O)O)CC1 | > 100 µM (inactive) | > 100 µM (inactive) | 45.8 µM (inactive) | 36.3 µM (inactive) | > 100 µM (inactive) | > 100 µM (inactive) | > 100 µM (inactive) | > 100 µM (inactive) | 56.2 µM (inactive) | 83.4 µM (inactive) | 79.6 µM (inactive) | 32.6 µM (inactive) | 82.8 µM (inactive) | – | > 100 µM (inactive) | > 100 µM (inactive) | 98.2 µM (inactive) | > 100 µM (inactive) | > 100 µM (inactive) | > 100 µM (inactive) |
| CC[C@@H]1/C=C/C=C/C[C@H](C)[C@@H](O)[C@](C)(O)C(=O)[C@H](C)[C@@H](O)[C@H](C)C(=O)[C@H](C)[C@@H](O)[C@H](C)/C=C/C(=O)O[C@H]2[C@@H](C)[C@@H](CC1)O[C@]1(O[C@H](CC(C)O)[C@H](C)CC1=O)[C@@H]2C (stereo partly drawn) | < 0.0025 µM (active) | 4.23 µM (inactive) | 0.871 µM (active) | < 0.0025 µM (active) | 3.26 µM (inactive) | < 0.0025 µM (active) | < 0.0025 µM (active) | 3.89 µM (inactive) | 1.04 µM (active) | < 0.0025 µM (active) | 4.79 µM (inactive) | 2.62 µM (inactive) | 3.99 µM (inactive) | < 0.0025 µM (active) | 3.14 µM (inactive) | < 0.0025 µM (active) | < 0.0025 µM (active) | 4.93 µM (inactive) | 0.108 µM (active) | 0.598 µM (active) |
| CC(C)(C)C1=C(Br)C(F)(C(C)(C)C)OP1(=O)c1ccccc1 (stereo not drawn) | 16.7 µM (inactive) | 18.7 µM (inactive) | 17 µM (inactive) | 10 µM (inactive) | 16.1 µM (inactive) | 18 µM (inactive) | 15.7 µM (inactive) | 20.6 µM (inactive) | 19.1 µM (inactive) | < 0.01 µM (active) | 16.1 µM (inactive) | 16.7 µM (inactive) | 19.3 µM (inactive) | 19.5 µM (inactive) | 14.8 µM (inactive) | 16.4 µM (inactive) | 15.8 µM (inactive) | 17.9 µM (inactive) | 24.8 µM (inactive) | 16.4 µM (inactive) |
| CN1C(=O)c2ccccc2NC(=O)C12O[C@@H]2c1cccc(O)c1 (stereo partly drawn) | > 100 µM (inactive) | > 100 µM (inactive) | > 100 µM (inactive) | – | > 100 µM (inactive) | > 100 µM (inactive) | > 100 µM (inactive) | > 100 µM (inactive) | > 100 µM (inactive) | > 100 µM (inactive) | > 100 µM (inactive) | > 100 µM (inactive) | > 100 µM (inactive) | > 100 µM (inactive) | > 100 µM (inactive) | > 100 µM (inactive) | > 100 µM (inactive) | > 100 µM (inactive) | > 100 µM (inactive) | > 100 µM (inactive) |
